# Reference: ChEMBL document CHEMBL1152860, “Synthesis and antiproliferative activity of 3-amino-N-phenyl-1H-indazole-1-carboxamides” (2009)
# Active and inactive are the calls of the source. The calls are words filed in the database; no cut-off is given here.
# Columns and labels:
# NCI-H226 = test: Growth inhibition of human NCI-H226 cells after 48 hrs by SRB assay; assay type: functional; settings: NCI-H226, 48 h
# TK-10 = test: Growth inhibition of human TK10 cells after 48 hrs by SRB assay; assay type: functional; settings: TK-10, 48 h
# LOX IMVI = test: Growth inhibition of human LOXIMVI cells after 48 hrs by SRB assay; assay type: functional
# SNB-75 = test: Growth inhibition of human SNB75 cells after 48 hrs by SRB assay; assay type: functional; settings: SNB-75, 48 h
# MOLT-4 = test: Growth inhibition of human MOLT4 cells after 48 hrs by SRB assay; assay type: functional; settings: MOLT-4, 48 h
# SF-539 = test: Growth inhibition of human SF539 cells after 48 hrs by SRB assay; assay type: functional; settings: SF-539, 48 h
# SK-MEL-5 = test: Growth inhibition of human SK-MEL-5 cells after 48 hrs by SRB assay; assay type: functional; settings: SK-MEL-5, 48 h
# SR = test: Growth inhibition of human SR cells after 48 hrs by SRB assay; assay type: functional
# A549 = test: Growth inhibition of human A549 cells after 48 hrs by SRB assay; assay type: functional; settings: A549, 48 h
# HOP-62 = test: Growth inhibition of human HOP62 cells after 48 hrs by SRB assay; assay type: functional; settings: HOP-62, 48 h
# SF-268 = test: Growth inhibition of human SF268 cells after 48 hrs by SRB assay; assay type: functional; settings: SF-268, 48 h
# OVCAR-5 = test: Growth inhibition of human OVCAR5 cells after 48 hrs by SRB assay; assay type: functional; settings: OVCAR-5, 48 h
# NCI/ADR-RES = test: Growth inhibition of human NCI/ADR-RES cells after 48 hrs by SRB assay; assay type: functional
# BT-549 = test: Growth inhibition of human BT549 cells after 48 hrs by SRB assay; assay type: functional; settings: BT-549, 48 h
# NCI-H522 = test: Growth inhibition of human NCI-H522 cells after 48 hrs by SRB assay; assay type: functional; settings: NCI-H522, 48 h
# MCF7 = test: Growth inhibition of human MCF7 cells after 48 hrs by SRB assay; assay type: functional; settings: MCF7, 48 h
# UACC-257 = test: Growth inhibition of human UACC257 cells after 48 hrs by SRB assay; assay type: functional; settings: UACC-257, 48 h
# T47D = test: Growth inhibition of human T47D cells after 48 hrs by SRB assay; assay type: functional
# SK-MEL-28 = test: Growth inhibition of human SK-MEL-28 cells after 48 hrs by SRB assay; assay type: functional; settings: SK-MEL-28, 48 h
# [1] = Growth inhibition of human Hs 578T cells after 48 hrs by SRB assay; assay type: functional
# HL-60(TB) = test: Growth inhibition of human HL-60(TB) cells after 48 hrs by SRB assay; assay type: functional; settings: HL-60, 48 h
# K562 [2] = test: Cell cycle arrest in human K562 cells assessed as accumulation at S phase at 42.7 uM after 24 hrs using propidium iodide staining by flow cytometry; assay type: functional, cell-based
# K562 [3] = test: Cell cycle arrest in human K562 cells assessed as accumulation at G2/M phase at 42.7 uM after 24 hrs using propidium iodide staining by flow cytometry; assay type: functional, cell-based
# NCI-H460 = test: Growth inhibition of human NCI-H460 cells after 48 hrs by SRB assay; assay type: functional; settings: NCI-H460, 48 h
# PC-3 = test: Growth inhibition of human PC3 cells after 48 hrs by SRB assay; assay type: functional; settings: PC-3, 48 h
# MDA-MB-435 = test: Growth inhibition of human MDA-MB-435 cells after 48 hrs by SRB assay; assay type: functional; settings: MDA-MB-435, 48 h
# RXF 393 = test: Growth inhibition of human […] cells after 48 hrs by SRB assay; assay type: functional; settings: RXF 393, 48 h
# Malme-3M = test: Growth inhibition of human MALME-3M cells after 48 hrs by SRB assay; assay type: functional
# NCI-H322M = test: Growth inhibition of human NCI-H322M cells after 48 hrs by SRB assay; assay type: functional
# UACC-62 = test: Growth inhibition of human UACC62 cells after 48 hrs by SRB assay; assay type: functional; settings: UACC-62, 48 h
# HCC 2998 = test: Growth inhibition of human HCC2998 cells after 48 hrs by SRB assay; assay type: functional; settings: HCC 2998, 48 h
# RPMI-8226 = test: Growth inhibition of human RPMI8226 cells after 48 hrs by SRB assay; assay type: functional; settings: RPMI-8226, 48 h
# M14 = test: Growth inhibition of human M14 cells after 48 hrs by SRB assay; assay type: functional; settings: M14, 48 h
# NCI-H23 = test: Growth inhibition of human NCI-H23 cells after 48 hrs by SRB assay; assay type: functional; settings: NCI-H23, 48 h
# SW-620 = test: Growth inhibition of human SW620 cells after 48 hrs by SRB assay; assay type: functional; settings: SW-620, 48 h
# A498 = test: Growth inhibition of human A498 cells after 48 hrs by SRB assay; assay type: functional; settings: A498, 48 h
# SF-295 = test: Growth inhibition of human SF295 cells after 48 hrs by SRB assay; assay type: functional; settings: SF-295, 48 h
# IGROV-1 = test: Growth inhibition of human IGROV1 cells after 48 hrs by SRB assay; assay type: functional; settings: IGROV-1, 48 h
# OVCAR-3 = test: Growth inhibition of human OVCAR-3 cells after 48 hrs by SRB assay; assay type: functional; settings: OVCAR-3, 48 h
# DU-145 = test: Growth inhibition of human DU145 cells after 48 hrs by SRB assay; assay type: functional; settings: DU-145, 48 h
# SK-MEL-2 = test: Growth inhibition of human SK-MEL-2 cells after 48 hrs by SRB assay; assay type: functional; settings: SK-MEL-2, 48 h
# MDA-MB-231 = test: Growth inhibition of human MDA-MB-231 cells after 48 hrs by SRB assay; assay type: functional; settings: MDA-MB-231, 48 h
# CAKI-1 = test: Growth inhibition of human Caki1 cells after 48 hrs by SRB assay; assay type: functional; settings: CAKI-1, 48 h
# ACHN = test: Growth inhibition of human ACHN cells after 48 hrs by SRB assay; assay type: functional
# SK-OV-3 = test: Growth inhibition of human SKOV3 cells after 48 hrs by SRB assay; assay type: functional; settings: SK-OV-3, 48 h
# K562 [4] = test: Growth inhibition of human K562 cells after 48 hrs by SRB assay; assay type: functional; settings: K562, 48 h
# HOP-92 = test: Growth inhibition of human HOP92 cells after 48 hrs by SRB assay; assay type: functional; settings: HOP-92, 48 h
# EKVX = test: Growth inhibition of human EKVX cells after 48 hrs by SRB assay; assay type: functional
# OVCAR-4 = test: Growth inhibition of human OVCAR4 cells after 48 hrs by SRB assay; assay type: functional; settings: OVCAR-4, 48 h
# SN12C = test: Growth inhibition of human SN12C cells after 48 hrs by SRB assay; assay type: functional
# COLO 205 = test: Growth inhibition of human COLO205 cells after 48 hrs by SRB assay; assay type: functional; settings: COLO 205, 48 h
# HCT-116 = test: Growth inhibition of human HCT116 cells after 48 hrs by SRB assay; assay type: functional; settings: HCT-116, 48 h
# U-251 = test: Growth inhibition of human U251 cells after 48 hrs by SRB assay; assay type: functional; settings: U-251, 48 h
# HT-29 = test: Growth inhibition of human HT-29 cells after 48 hrs by SRB assay; assay type: functional; settings: HT-29, 48 h
# 786-0 = test: Growth inhibition of human 786-0 cells after 48 hrs by SRB assay; assay type: functional; settings: 786-0, 48 h
# KM12 = test: Growth inhibition of human KM12 cells after 48 hrs by SRB assay; assay type: functional; settings: KM12, 48 h
# HCT-15 = test: Growth inhibition of human HCT15 cells after 48 hrs by SRB assay; assay type: functional; settings: HCT-15, 48 h
# SNB-19 = test: Growth inhibition of human SNB19 cells after 48 hrs by SRB assay; assay type: functional; settings: SNB-19, 48 h
# UO-31 = test: Growth inhibition of human UO31 cells after 48 hrs by SRB assay; assay type: functional; settings: UO-31, 48 h
# OVCAR-8 = test: Growth inhibition of human OVCAR8 cells after 48 hrs by SRB assay; assay type: functional; settings: OVCAR-8, 48 h
smiles,measurement,setting,value
O=C(Nc1ccccc1OC(F)(F)F)Nc1n[nH]c2ccccc12,GI50,NCI-H226,26.1 µM
same,GI50,TK-10,37.9 µM
same,GI50,LOX IMVI,22.5 µM
same,GI50,SNB-75,17.5 µM
same,GI50,MOLT-4,59.1 µM
same,GI50,SF-539,30.5 µM
same,GI50,SK-MEL-5,28.7 µM
same,GI50,SR,48.9 nM
same,TGI,SR,24 µM
same,CC50,SR; read-out: LC50 (the source's name),> 100 µM
same,GI50,A549,15.7 µM
same,GI50,HOP-62,19.6 µM
same,GI50,SF-268,16.2 µM
same,GI50,OVCAR-5,34.3 µM
same,GI50,NCI/ADR-RES,44.2 µM
same,GI50,BT-549,76.4 µM
same,GI50,NCI-H522,33.9 µM
same,GI50,MCF7,1750 nM
same,GI50,UACC-257,47.2 µM
same,GI50,T47D,37.5 µM
same,GI50,SK-MEL-28,42.2 µM
same,GI50,[1],19.4 µM
same,GI50,HL-60(TB),17.9 µM
same,Activity,K562 [2],Active
same,Activity,K562 [3],Active
same,GI50,NCI-H460,15 µM
same,GI50,PC-3,31.4 µM
same,GI50,MDA-MB-435,51.5 µM
same,GI50,RXF 393,24.3 µM
same,GI50,Malme-3M,76.9 µM
same,GI50,NCI-H322M,81.6 µM
same,GI50,UACC-62,31.7 µM
same,GI50,HCC 2998,55.9 µM
same,GI50,RPMI-8226,52 µM
same,GI50,M14,22.5 µM
same,GI50,NCI-H23,50 µM
same,GI50,SW-620,36.7 µM
same,GI50,A498,> 100 µM
same,GI50,SF-295,39 µM
same,GI50,IGROV-1,4.59 µM
same,GI50,OVCAR-3,90.8 µM
same,GI50,DU-145,51.7 µM
same,GI50,SK-MEL-2,81.4 µM
same,GI50,MDA-MB-231,17.9 µM
same,GI50,CAKI-1,31 µM
same,GI50,ACHN,31.1 µM
same,GI50,SK-OV-3,> 100 µM
same,GI50,K562 [4],42.7 µM
same,GI50,HOP-92,12.9 µM
same,GI50,EKVX,48.2 µM
same,GI50,OVCAR-4,37.7 µM
same,GI50,SN12C,72.5 µM
same,GI50,COLO 205,71.8 µM
same,GI50,HCT-116,16.2 µM
same,GI50,U-251,31.1 µM
same,GI50,HT-29,26.1 µM
same,GI50,786-0,38.7 µM
same,GI50,KM12,23.4 µM
same,GI50,HCT-15,36.2 µM
same,GI50,SNB-19,78.3 µM
same,GI50,UO-31,17.4 µM
same,GI50,OVCAR-8,29.6 µM
